In ChEMBL document CHEMBL2046421, “Study on anti-proliferative effect of benzoxathiole derivatives through inactivation of NF-κB in human cancer cells” (Bioorg Med Chem Lett, 2012):

Columns and labels:
HCT-15 = test: Antiproliferative activity against human HCT15 cells by SRB assay; format: functional
NCI-H23 = test: Antiproliferative activity against human NCI-H23 cells by SRB assay; format: functional
ACHN = test: Antiproliferative activity against human ACHN cells by SRB assay; format: functional
MDA-MB-231 = test: Antiproliferative activity against human MDA-MB-231 cells by SRB assay; format: functional
NUGC-3 = test: Antiproliferative activity against human NUGC3 cells by SRB assay; format: functional
[1] = Inhibition of NFkappaB expressed in THP1 cells assessed as inhibition of LPS-induced SEAP activity incubated for 2 hrs prior to LPS-induction measured after 16 hrs by reporter gene assay; format: cell-based; settings: THP-1
PC-3 = test: Antiproliferative activity against human PC3 cells by SRB assay; format: functional
[2] = Inhibition of NFkappaB expressed in RAW264.7 cells coexpressing NPT assessed as inhibition of LPS-induced SEAP activity incubated for 2 hrs prior to LPS-induction measured after 16 hrs by reporter gene assay; format: cell-based

GI50 (HCT-15)	GI50 (NCI-H23)	GI50 (ACHN)	GI50 (MDA-MB-231)	IC50 [1]	GI50 (PC-3)	IC50 [2]	Compound	GI50 (NUGC-3)
2.07 µM	2.72 µM	2.98 µM	2.31 µM	6.7 µM	2.63 µM	6.7 µM	CC1CC(=O)c2s/c(=N/c3ccccc3)oc2C1 (stereo not drawn)	1.89 µM
1.15 µM	2.28 µM	3.08 µM	2.48 µM	4.9 µM	2.19 µM	4.9 µM	CC(C)C1CC(=O)c2s/c(=N/c3ccccc3)oc2C1 (stereo not drawn)	1.22 µM
12.2 µM	12.5 µM	11.3 µM	13.1 µM	12.5 µM	12.7 µM	12.5 µM	CC1(C)CC(=O)c2s/c(=N/C3CCCCC3)oc2C1	11.5 µM
3.53 µM	7.08 µM	6.7 µM	5.9 µM	13.1 µM	5.16 µM	13.1 µM	CC(C)C1CC(=O)c2s/c(=N/C3CCCCC3)oc2C1 (stereo not drawn)	2.71 µM
12.2 µM	13.5 µM	12.3 µM	14.3 µM	19.5 µM	16.4 µM	19.5 µM	CC1CC(=O)c2s/c(=N/c3ccc(Cl)cc3)oc2C1 (stereo not drawn)	15.9 µM
2.99 µM	3.65 µM	3.67 µM	2.69 µM	7.9 µM	2.76 µM	7.9 µM	CC(C)C1CC(=O)c2s/c(=N/c3ccc(F)cc3)oc2C1 (stereo not drawn)	0.67 µM
> 30 µM	> 30 µM	> 30 µM	> 30 µM	> 30 µM	> 30 µM	> 30 µM	CC(C)C1CC(=O)c2s/c(=N/c3c(Cl)cc(Cl)cc3Cl)oc2C1 (stereo not drawn)	> 30 µM
> 30 µM	> 30 µM	> 30 µM	> 30 µM	> 30 µM	> 30 µM	> 30 µM	CC1(C)CC(=O)c2o/c(=N/C3CCCCC3)oc2C1	> 30 µM

Continued, molecule first:

Compound	GI50 (HCT-15)	GI50 (NCI-H23)	GI50 (ACHN)	GI50 (MDA-MB-231)	IC50 [1]	GI50 (PC-3)	IC50 [2]	GI50 (NUGC-3)
CC1(C)CC(=O)c2s/c(=N/c3ccccc3)oc2C1	8.09 µM	7.08 µM	8.98 µM	5.88 µM	6.2 µM	7.4 µM	6.2 µM	5.46 µM
CC1(C)CC(=O)c2s/c(=N/c3ccc(Cl)cc3)oc2C1	3.79 µM	11.6 µM	9.81 µM	6.38 µM	7.5 µM	4.26 µM	7.5 µM	2.94 µM
CC1(C)CC(=O)c2s/c(=N/c3ccc(F)cc3)oc2C1	2.39 µM	3.36 µM	3.74 µM	3.2 µM	10.6 µM	2.45 µM	10.6 µM	1.08 µM
CC1(C)CC(=O)c2s/c(=N/c3c(Cl)cc(Cl)cc3Cl)oc2C1	> 30 µM	> 30 µM	> 30 µM	> 30 µM	> 30 µM	> 30 µM	> 30 µM	> 30 µM
CC1CC(=O)c2s/c(=N/c3c(Cl)cc(Cl)cc3Cl)oc2C1 (stereo not drawn)	> 30 µM	> 30 µM	> 30 µM	> 30 µM	> 30 µM	> 30 µM	> 30 µM	> 30 µM
CCCc1o/c(=N\c2ccccc2)sc1C(C)=O	> 30 µM	> 30 µM	> 30 µM	> 30 µM	> 30 µM	> 30 µM	> 30 µM	> 30 µM
COc1cccc2c1C(=O)c1c(O)c3c(c(O)c1C2=O)C[C@@](O)(C(=O)CO)C[C@@H]3O[C@H]1C[C@H](N)[C@H](O)[C@H](C)O1 [DOXORUBICIN]	1.34 µM	1.66 µM	1.63 µM	1.79 µM		1.65 µM		1 µM
